These results are taken from patent publication US20090285840A1, “METHODS FOR TREATING PATHOLOGICAL NEOVASCULARIZATION” (New York Society for the Ruptured and Crippled Maintaining …, priority 2008, published 2009).

The subject of one series is human ADAM9 mRNA. Further details: concentration or dose not given beside the values. To be noted: percentage inhibition data reported in US 2004/0092466, Example 15; target SEQ ID NO 94; cited from earlier work.
In the next series the test system is ADAM9. Put plainly: ADAM9 expression in mouse embryonic fibroblasts treated with H2O2 (immunoblot). Format: cell-based. Conditions: MEF cells from wildtype mice, H2O2 200 μM (highest concentration), 6 hrs.
The next series relates to EphB4. Put plainly: Alkaline phosphatase shedding assay of transiently expressed EphB4 in mouse embryonic fibroblasts treated with H2O2. In kind it is cell-based. The method, then:
Stimulation of ADAM9-dependent shedding. […] Alkaline phosphatase shedding assays were performed as described (Weskamp et al., 1996, Cell Biol. 132:717-726; Zheng et al., 2002, J. BioI. Chem. 277:42463-42470) in (mouse embryonic fibroblasts) MEF cells and in pig aortic endothelial cells (PAE cells, kindly provided by Dr. Shahin Rafii). Reactive oxygen species (ROS) assays were performed using a modified version of the procedure reported by Sung et al., 2006, Cancer Res 66:9519-26). Specifically, 20 hours post-transfection, cells maintained at 50-60% culture density were washed twice with OptiMem over the course of 1 hour. […] The resulting supernatants and lysates were collected and assayed in triplicate for alkaline phosphatase activity as described previously (Sahin et al., 2006, “A sensitive method to monitor ectodomain shedding of ligands of the epidermal growth factor receptor,” In Epidermal Growth Factor: Methods and Protocols, In P. J. B. and T. B. Patel eds., Vol. 327, p. 99-113., Humana Press Inc., Totowa, N.J.; Sahin et al., J. Cell Biol. 164:769779; Zheng et al., 2002, J. BioI. Chem. 277:42463-42470). All data presented here representative example from at least three independent assays.
The shedding of EphB4 from Adam9 −/− cells could be rescued by transfection with ADAM9, however, the resulting activity could not be further enhanced by treatment with H2O2. […]

Series [1] concerns the target T1, alkaline phosphatase tagged CD34 (amino acids 31-385) (UniProt Q64314).
T1 sequence: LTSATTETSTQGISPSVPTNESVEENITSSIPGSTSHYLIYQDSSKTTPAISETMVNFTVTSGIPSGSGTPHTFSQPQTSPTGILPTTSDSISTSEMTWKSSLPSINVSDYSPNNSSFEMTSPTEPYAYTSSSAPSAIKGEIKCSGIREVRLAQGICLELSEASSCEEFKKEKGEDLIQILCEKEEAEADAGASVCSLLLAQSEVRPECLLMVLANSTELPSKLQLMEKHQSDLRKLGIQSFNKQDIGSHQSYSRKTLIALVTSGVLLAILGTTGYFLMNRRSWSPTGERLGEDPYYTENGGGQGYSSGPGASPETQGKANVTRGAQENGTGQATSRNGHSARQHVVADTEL

Series [2] addresses alkaline phosphatase tagged CD36 (UniProt P05187).
Series [3] concerns the target alkaline phosphatase tagged CD40 (amino acids 24-278) (UniProt P27512).
Series [4] addresses T2, alkaline phosphatase tagged E-Selectin (amino acids 31-612) (UniProt Q00690).
T2 sequence: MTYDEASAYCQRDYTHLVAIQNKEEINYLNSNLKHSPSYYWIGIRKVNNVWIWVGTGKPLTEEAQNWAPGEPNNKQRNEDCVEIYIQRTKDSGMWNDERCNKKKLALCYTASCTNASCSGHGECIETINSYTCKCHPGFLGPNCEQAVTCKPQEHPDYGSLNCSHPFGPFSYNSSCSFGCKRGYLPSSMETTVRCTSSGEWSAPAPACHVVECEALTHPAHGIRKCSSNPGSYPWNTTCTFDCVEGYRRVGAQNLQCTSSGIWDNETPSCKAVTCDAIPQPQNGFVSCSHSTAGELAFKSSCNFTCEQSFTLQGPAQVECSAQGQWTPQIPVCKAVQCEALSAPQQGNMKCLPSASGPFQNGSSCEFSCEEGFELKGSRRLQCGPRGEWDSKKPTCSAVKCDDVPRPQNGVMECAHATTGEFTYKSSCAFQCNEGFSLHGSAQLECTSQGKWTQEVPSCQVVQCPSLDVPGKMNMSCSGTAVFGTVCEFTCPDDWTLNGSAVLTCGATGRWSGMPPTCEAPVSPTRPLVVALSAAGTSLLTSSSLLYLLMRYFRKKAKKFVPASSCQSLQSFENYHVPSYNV

The target in series [5] is alkaline phosphatase tagged EphB4 (UniProt P05187).
For series [6], the target named is alkaline phosphatase tagged EphrinB2 (UniProt P05187).
Series [7] concerns the target alkaline phosphatase tagged FLK-1 (amino acids 605-859) (UniProt P35918).
The target of series [8] is alkaline phosphatase tagged ICAM-1 (amino acids 26-532) (UniProt P13597).
Series [9] concerns the target alkaline phosphatase tagged Tie-2 (amino acids 580-833) (UniProt Q02858).
Series [10] deals with T3, alkaline phosphatase tagged VCAM-1 (amino acids 28-739) (UniProt P29533).
T3 sequence: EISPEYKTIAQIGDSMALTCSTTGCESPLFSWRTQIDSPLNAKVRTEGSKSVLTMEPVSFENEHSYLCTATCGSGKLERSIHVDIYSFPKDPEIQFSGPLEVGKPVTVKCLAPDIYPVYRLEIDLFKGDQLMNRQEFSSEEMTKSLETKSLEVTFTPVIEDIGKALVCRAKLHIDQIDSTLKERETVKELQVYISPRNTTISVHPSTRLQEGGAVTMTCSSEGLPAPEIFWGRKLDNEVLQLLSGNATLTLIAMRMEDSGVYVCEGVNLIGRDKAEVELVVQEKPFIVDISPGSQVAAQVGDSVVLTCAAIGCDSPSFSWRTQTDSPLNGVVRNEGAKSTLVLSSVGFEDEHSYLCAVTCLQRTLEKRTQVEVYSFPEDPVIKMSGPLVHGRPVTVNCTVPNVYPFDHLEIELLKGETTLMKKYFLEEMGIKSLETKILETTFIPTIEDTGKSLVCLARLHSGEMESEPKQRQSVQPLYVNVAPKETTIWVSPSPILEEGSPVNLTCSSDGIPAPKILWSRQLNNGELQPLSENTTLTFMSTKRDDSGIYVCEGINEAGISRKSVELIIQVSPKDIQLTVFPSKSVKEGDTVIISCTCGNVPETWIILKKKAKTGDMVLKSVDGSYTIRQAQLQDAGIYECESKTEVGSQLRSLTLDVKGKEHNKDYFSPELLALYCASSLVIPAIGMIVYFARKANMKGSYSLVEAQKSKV

Series [11] addresses alkaline phosphatase tagged VE-Cadherin (UniProt P05187).

Sequence of ADAM9 (wild type, overexpressed from an expression construct) (Q13443 whole entry): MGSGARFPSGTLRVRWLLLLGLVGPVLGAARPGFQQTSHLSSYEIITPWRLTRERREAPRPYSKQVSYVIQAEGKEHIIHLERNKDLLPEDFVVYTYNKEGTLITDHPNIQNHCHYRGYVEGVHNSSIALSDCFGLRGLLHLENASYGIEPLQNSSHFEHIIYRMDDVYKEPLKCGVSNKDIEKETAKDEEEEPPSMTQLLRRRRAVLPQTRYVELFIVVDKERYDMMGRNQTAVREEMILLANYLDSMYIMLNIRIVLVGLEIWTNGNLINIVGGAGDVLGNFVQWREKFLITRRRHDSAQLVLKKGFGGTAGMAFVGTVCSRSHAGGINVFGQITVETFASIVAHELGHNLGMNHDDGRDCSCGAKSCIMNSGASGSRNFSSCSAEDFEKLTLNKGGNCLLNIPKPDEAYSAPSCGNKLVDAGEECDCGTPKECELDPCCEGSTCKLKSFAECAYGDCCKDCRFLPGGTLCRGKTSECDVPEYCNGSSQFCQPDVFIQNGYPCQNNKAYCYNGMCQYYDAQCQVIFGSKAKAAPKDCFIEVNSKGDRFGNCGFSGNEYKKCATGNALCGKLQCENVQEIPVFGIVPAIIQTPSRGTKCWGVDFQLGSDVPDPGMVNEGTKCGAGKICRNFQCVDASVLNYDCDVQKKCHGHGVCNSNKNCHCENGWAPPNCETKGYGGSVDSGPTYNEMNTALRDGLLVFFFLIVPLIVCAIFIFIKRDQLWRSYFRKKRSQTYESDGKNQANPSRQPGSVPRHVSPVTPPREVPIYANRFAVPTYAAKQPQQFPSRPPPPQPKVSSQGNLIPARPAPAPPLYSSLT
Sequence of UniProt Q02858 (Q02858 580-833): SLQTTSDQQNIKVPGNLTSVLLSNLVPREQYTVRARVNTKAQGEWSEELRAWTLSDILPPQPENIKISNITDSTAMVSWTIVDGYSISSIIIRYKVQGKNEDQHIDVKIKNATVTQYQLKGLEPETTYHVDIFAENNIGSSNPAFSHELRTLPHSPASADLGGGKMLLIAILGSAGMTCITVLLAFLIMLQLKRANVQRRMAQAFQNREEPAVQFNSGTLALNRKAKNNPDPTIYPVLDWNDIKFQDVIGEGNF
Sequence of UniProt P27512 (P27512 24-278): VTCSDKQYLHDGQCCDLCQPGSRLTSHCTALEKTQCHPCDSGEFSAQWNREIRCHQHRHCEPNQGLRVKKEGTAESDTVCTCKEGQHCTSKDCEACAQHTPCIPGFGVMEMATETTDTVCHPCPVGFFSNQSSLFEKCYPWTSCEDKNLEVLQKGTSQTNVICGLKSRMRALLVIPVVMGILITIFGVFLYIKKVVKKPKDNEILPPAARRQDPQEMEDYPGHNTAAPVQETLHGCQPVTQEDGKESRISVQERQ
Sequence of UniProt P35918 (P35918 605-859): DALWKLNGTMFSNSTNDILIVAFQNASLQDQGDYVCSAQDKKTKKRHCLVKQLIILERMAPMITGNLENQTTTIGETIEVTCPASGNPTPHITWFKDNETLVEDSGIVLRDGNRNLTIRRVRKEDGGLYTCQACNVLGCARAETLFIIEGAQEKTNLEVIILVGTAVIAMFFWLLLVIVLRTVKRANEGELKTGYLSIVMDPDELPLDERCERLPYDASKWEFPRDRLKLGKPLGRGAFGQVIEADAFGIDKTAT
Sequence of UniProt P13597 (P13597 26-532): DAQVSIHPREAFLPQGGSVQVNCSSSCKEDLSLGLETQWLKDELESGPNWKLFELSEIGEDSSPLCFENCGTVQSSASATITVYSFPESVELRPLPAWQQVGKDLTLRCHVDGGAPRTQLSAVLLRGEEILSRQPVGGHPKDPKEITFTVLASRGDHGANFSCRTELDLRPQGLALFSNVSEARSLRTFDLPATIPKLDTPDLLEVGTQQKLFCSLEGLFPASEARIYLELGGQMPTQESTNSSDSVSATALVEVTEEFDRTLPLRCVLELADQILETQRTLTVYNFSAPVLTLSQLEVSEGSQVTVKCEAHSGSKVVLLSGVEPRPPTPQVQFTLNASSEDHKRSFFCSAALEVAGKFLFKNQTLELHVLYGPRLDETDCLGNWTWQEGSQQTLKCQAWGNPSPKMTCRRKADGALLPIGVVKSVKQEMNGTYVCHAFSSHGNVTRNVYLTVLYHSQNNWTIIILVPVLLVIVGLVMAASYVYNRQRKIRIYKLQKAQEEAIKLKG

“48 (GGGAGGCTCTTCCTCTTCAT; listed as DNA, chemistry not given here) [compound 48]”: in the series on human ADAM9 mRNA, the “% INHIB” value is listed as 55%.

As for “49 (ACTGAAGCTTTCCACACAAA; listed as DNA, chemistry not given here) [compound 49]”, in the series on human ADAM9 mRNA, the “% INHIB” value was 52%.

With “50 (TCCCACAAATGCCATTCCTG; listed as DNA, chemistry not given here) [compound 50]”, in the series with human ADAM9 mRNA, the “% INHIB” value is on record as 78%.

Consider “51 (AGAAAACCATTTCTTCCTTC; listed as DNA, chemistry not given here) [compound 51]”, for which, in the series with human ADAM9 mRNA, the “% INHIB” value was 75%.

For “52 (ATTATTGGCAGCTGATTAGT; listed as DNA, chemistry not given here) [compound 52]”, in the series with human ADAM9 mRNA, the “% INHIB” value is given as 79%.

Take “53 (GCACCACATTTTGTGCCTTC; listed as DNA, chemistry not given here) [compound 53]”: the “% INHIB” value with human ADAM9 mRNA is reported as 74%.

On to “54 (CTGATTAGTCAGTTTTCACA; listed as DNA, chemistry not given here) [compound 54]”, for which the “% INHIB” value in the series with human ADAM9 mRNA is 85%.

With “55 (TCAATGCAGTATTCATTTCA; listed as DNA, chemistry not given here) [compound 55]”, the “% INHIB” value with human ADAM9 mRNA is reported as 49%.

Take “56 (AAGAAGACCAGAAGTCCGTC; listed as DNA, chemistry not given here) [compound 56]”: the “% INHIB” value in the series with human ADAM9 mRNA was 74%.

For the compound “57 (ATTCCTTTGGAGTACCACAG; listed as DNA, chemistry not given here) [compound 57]”, the “% INHIB” value in the series with human ADAM9 mRNA is 81%.

Take “58 (GGTATCTCTTGTACATTCTC; listed as DNA, chemistry not given here) [compound 58]”: in the series with human ADAM9 mRNA, the “% INHIB” value is reported as 18%.

With “59 (GGGAACTGCTGAGGTTGCTT; listed as DNA, chemistry not given here) [compound 59]”, the “% INHIB” value with human ADAM9 mRNA was 46%.

In the case of `OO` [H2O2], in the series on ADAM9, the ADAM9 expression entry was “increase in ADAM9 expression”. Besides, the EphB4 shedding result with EphB4 (Adam9 −/− cells expressing EphB4, 100 or 200 μM H2O2) was “no increase in EphB4 shedding”. Also, the “shedding of transiently expressed EphB4” value with EphB4 (wt MEF cells, 100 or 200 μM H2O2 for 6 hrs) is listed as “strong increase in the shedding”.

Turning to “ADAM9 (wild type, overexpressed from an expression construct)”, the “shedding (alkaline phosphatase activity released into the supernatant)” value in [1] is “Overexpression of ADAM9 did not increase the shedding of E-selectin, ICAM-1, Ephrin B2, CD34 and CD36 compared to ADAM9 E>A, at least under the conditions used here”; in series [2] it was “Overexpression of ADAM9 did not increase the shedding of E-selectin, ICAM-1, Ephrin B2, CD34 and CD36 compared to ADAM9 E>A, at least under the conditions used here”; in [3], “overexpression of ADAM9 increased the shedding of CD40, EphB4, Flk1, Tie-2, VE-cadherin and VCAM compared to cells overexpressing ADAM9 E>A together with these substrates”; in series [4], “Overexpression of ADAM9 did not increase the shedding of E-selectin, ICAM-1, Ephrin B2, CD34 and CD36 compared to ADAM9 E>A, at least under the conditions used here”; in series [5], “overexpression of ADAM9 increased the shedding of CD40, EphB4, Flk1, Tie-2, VE-cadherin and VCAM compared to cells overexpressing ADAM9 E>A together with these substrates”; in series [6], “Overexpression of ADAM9 did not increase the shedding of E-selectin, ICAM-1, Ephrin B2, CD34 and CD36 compared to ADAM9 E>A, at least under the conditions used here”. The “shedding (alkaline phosphatase activity released into the supernatant)” value in [7] was “overexpression of ADAM9 increased the shedding of CD40, EphB4, Flk1, Tie-2, VE-cadherin and VCAM compared to cells overexpressing ADAM9 E>A together with these substrates”; in series [8] it was “Overexpression of ADAM9 did not increase the shedding of E-selectin, ICAM-1, Ephrin B2, CD34 and CD36 compared to ADAM9 E>A, at least under the conditions used here”; in [9] it was “overexpression of ADAM9 increased the shedding of CD40, EphB4, Flk1, Tie-2, VE-cadherin and VCAM compared to cells overexpressing ADAM9 E>A together with these substrates”; in series [10], “overexpression of ADAM9 increased the shedding of CD40, EphB4, Flk1, Tie-2, VE-cadherin and VCAM compared to cells overexpressing ADAM9 E>A together with these substrates”; in [11], “overexpression of ADAM9 increased the shedding of CD40, EphB4, Flk1, Tie-2, VE-cadherin and VCAM compared to cells overexpressing ADAM9 E>A together with these substrates”.
